In ChEMBL document CHEMBL1201862, “PubChem BioAssay data set” (2004):
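Grown in 96-well plates, cells were treated for 48 hours with each compound at five concentrations. Insufficient inhibition: endpoint recorded as highest concentration tested. GI50: concentration for 50% inhibition of growth.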 Calls of active or inactive are those of the source. Rule as the data show it: active = GI50 up to about 1.1 µM and inactive = higher.

Key:
Assay in all cases: DTP human tumour cell line panel, 48 h
LOX IMVI = tested on: LOX IMVI
SK-OV-3 = tested on: SK-OV-3
OVCAR-8 = tested on: OVCAR-8
IGROV-1 = tested on: IGROV-1
HL-60 = tested on: HL-60
CCRF-CEM = tested on: CCRF-CEM
SW-620 = tested on: SW-620
HOP-92 = tested on: HOP-92
SNB-75 = tested on: SNB-75
RXF 393 = tested on: RXF 393
OVCAR-5 = tested on: OVCAR-5
U-251 = tested on: U-251
DU-145 = tested on: DU-145
MDA-MB-231 = tested on: MDA-MB-231
UACC-257 = tested on: UACC-257
Malme-3M = tested on: Malme-3M
SNB-19 = tested on: SNB-19
HT-29 = tested on: HT-29
CAKI-1 = tested on: CAKI-1
SK-MEL-28 = tested on: SK-MEL-28
HCT-116 = tested on: HCT-116
MOLT-4 = tested on: MOLT-4
SF-295 = tested on: SF-295
MCF7 = tested on: MCF7
SF-539 = tested on: SF-539
MDA-MB-435 = tested on: MDA-MB-435
EKVX = tested on: EKVX
COLO 205 = tested on: COLO 205
BT-549 = tested on: BT-549
OVCAR-4 = tested on: OVCAR-4
PC-3 = tested on: PC-3
RPMI-8226 = tested on: RPMI-8226
HCT-15 = tested on: HCT-15
SF-268 = tested on: SF-268
K562 = tested on: K562
NCI-H23 = tested on: NCI-H23
MDA-N = tested on: MDA-N
SR = tested on: SR
HOP-62 = tested on: HOP-62
UO-31 = tested on: UO-31
SK-MEL-5 = tested on: SK-MEL-5
SN12C = tested on: SN12C
A498 = tested on: A498
M14 = tested on: M14
KM12 = tested on: KM12
UACC-62 = tested on: UACC-62
TK-10 = tested on: TK-10
NCI-H226 = tested on: NCI-H226
OVCAR-3 = tested on: OVCAR-3
ACHN = tested on: ACHN
NCI/ADR-RES = tested on: NCI/ADR-RES
HCC 2998 = tested on: HCC 2998
T47D = tested on: T47D
Hs-578T = tested on: Hs-578T
NCI-H460 = tested on: NCI-H460
A549 = tested on: A549
786-0 = tested on: 786-0
NCI-H522 = tested on: NCI-H522

Measured: GI50

CCCCCCCCCC(=O)N[C@@H](c1ccco1)[C@@H](O)C(=O)O[C@H]1C[C@@]2(O)[C@@H](OC(=O)c3ccccc3)[C@@H]3[C@]4(OC(C)=O)CO[C@@H]4C[C@H](O)[C@@]3(C)C(=O)[C@H](OC(C)=O)C(=C1C)C2(C)C
inactive: CAKI-1 2850 nM | EKVX 10000 nM | OVCAR-4 1340 nM | UO-31 1660 nM | ACHN 2920 nM | NCI/ADR-RES 4570 nM
752 nM: HCT-15
active: LOX IMVI 11.1 nM | SK-OV-3 26.9 nM | OVCAR-8 29.8 nM | IGROV-1 32.4 nM | HL-60 9.66 nM | CCRF-CEM 17.8 nM | SW-620 24.3 nM | HOP-92 29.6 nM | SNB-75 989 nM | RXF 393 43 nM | OVCAR-5 19.6 nM | U-251 < 24.1 nM | DU-145 106 nM | MDA-MB-231 101 nM | UACC-257 37.4 nM | Malme-3M 26.9 nM | SNB-19 44.2 nM | HT-29 5.98 nM | SK-MEL-28 49.8 nM | HCT-116 5.39 nM | MOLT-4 12.4 nM | SF-295 38.9 nM | MCF7 6.95 nM | SF-539 22.8 nM | MDA-MB-435 < 5 nM | COLO 205 < 5 nM | BT-549 41.9 nM | PC-3 640 nM | RPMI-8226 < 5 nM | SF-268 158 nM | K562 18.7 nM | NCI-H23 38.5 nM | MDA-N < 5 nM | SR 10.1 nM | HOP-62 59.3 nM | SK-MEL-5 15.4 nM | SN12C 40.7 nM | A498 82 nM | M14 30.8 nM | KM12 8.79 nM | UACC-62 46.7 nM | TK-10 468 nM | NCI-H226 31.1 nM | OVCAR-3 9.14 nM | HCC 2998 70.3 nM | T47D 178 nM | Hs-578T 8.65 nM | NCI-H460 11.8 nM | A549 31.8 nM | 786-0 28.2 nM | NCI-H522 14.9 nM
